One assay relates to KcsA-Kv1.3. Put plainly: Phage panning on purified immobilized KcsA-Kv1.3 (KcsA-1.3). The class given is binding. As to conditions: mixture of five ligands.
Another assay concerns the target T1, Kv1.1 (Rattus norvegicus, UniProt P10499).
T1 construct: expressed in transfected cells; host or cells: Xenopus laevis oocytes (cRNA injection)
The assay can be described thus: Two electrode voltage clamp, Xenopus oocytes, Kv1.1. It is filed as cell-based. As for the experimental part: To examine the effect of mokatoxin-1 on activity of potassium ion channels, cDNA encoding Rattus Kv1.1 (NCBI accession number NM_173095), Rattus Kv1.2 (NM_012970), Homo Kv1.3 (NM_002232), or Mus BK (NM_010610) were subcloned into oocyte expression vectors based on PCR3.1 and pGEM. cRNA synthesis was performed with T7 polymerase and the mMessageMachine Kit (Ambion, Austin, Tex.) according to manufacturers instructions. cRNA concentrations were determined spectroscopically. For two electrode voltage clamp recordings oocytes were extracted from Xenopus laevis and defoliculated with Collagenase Type 2 (Worthington, Lakewood, N.J.). Oocytes were maintained in ND91 solution containing 2 mM KCl, 91 mM NaCl, 1 mM MgCl2, 1.8 mM CaCl2, and 5 mM HEPES, pH 7.5, supplemented with 1% Penicillin/Streptomycin (Cellgro, Hemdon, Va.) and 0.1% Gentamycin sulfate (Gibco, Grand Island, N.Y.)) at 16° C. Stage V and VI oocytes were injected with 8 pg to 4 ng cRNA, and currents recorded 1 to 4 days later.
For dose-response measurements of toxin block of Kv1.1, Kv1,2, or Kv1.3 peak currents were recorded during a 500 ms step to 0 mV from a holding voltage of −100 mV, followed by a 200 ms step to −135 mV every 30 s. To determine the kinetics of toxin block oocytes were held at −100 mV and stepped to the test voltage of 0 mV for 100 ms followed by a 200 ms duration step to −135 mV every 2 s. BK currents were recorded during a 50 ms step to +60 mV from a holding voltage of −80 mV, followed by a 40 ms step to −100 mV every 3 s. The perfusion solution contained 2 mM KCl, 96 mM NaCl, 1 mM MgCl2, 1.8 mM CaCl2, 5 mM HEPES, pH 7.5 and 0.1% fatty acid ultra-free BSA fraction V (Roche Diagnostics Corporation, Indianapolis, Ind.). Data acquisition and processing was performed with an oocyte clamp OC-725B (Warner Instruments Corporation, Hamden, Conn.), pCLAMP (Axon, Sunnyvale, Calif.), IGOR Pro (WaveMetrics, Lake Oswego, Oreg.), and Origin6.1 (OriginLab Corporation, Northampton, Mass.) softwares. The equilibrium dissociation rates (KD) for block of Kv1.1, Kv1.2, and Kv1.3 by mokatoxin-1 were determined by fitting the dose-response data and kon and koff were calculated as described by Goldstein and Miller, 1993 (Biophys J. 1993 65 (4):1613-1619).
For orientation: In two-electrode clamp one electrode senses voltage and the other passes current.

The next assay concerns the target Kv1.3 (Homo sapiens, UniProt P22001). The assay can be described thus: Phage panning on live cells (HEK, COS) expressing Kv1.3 channels. It is filed as binding. Set-up: expressed in transfected cells; host or cells: HEK (HEK293) and COS cells. The conditions noted are these: for enrichment of KTX, Kv1.3 transfected vs. vector cells: 5×10^11 phagemids; for OUTPUT KTX (%): mixture of KTX and nonspecific phages, one round of panning. The text has this: In another example, receptors may be expressed in cells. For example, cells may be stably or transiently transfected with one or more receptors can be utilized as expressed in native tissues (Clackson and Lowman, Phage display. Oxford University Press, 2004; Barbas et al., Phage display. A laboratory manual. Cold Spring Harbor Laboratory Press, 2001; Sambrook et al., Molecular Cloning: A Laboratory Manual. Vols 1-3. Cold Spring Harbor Laboratory Press, 1989). In one example, HEK (mammalian human embryonic kidney) and COS cells expressing wild-type Kv1.3 or Kv1.3-PDZ domain chimera were employed, the latter target allowing a “double” panning (e.g., as a control or to enhance binding affinity) using phages expressing kaliotoxin-1 and/or PDZ-binder domain.
Panning may be performed by the binding of ligands to the receptors, followed by washes and ligand recovery. In one example, panning is performed according to standard methods of phage display (Clackson and Lowman, Phage display. Oxford University Press, 2004; Barbas et al., Phage display. A laboratory manual. Cold Spring Harbor Laboratory Press, 2001). Panning may be repeated until the desired enrichment is achieved. In addition, libraries can be pre-depleted on surfaces or cells that contain no receptors or on a receptor where the putative ligand receptor domain may be directly or indirectly altered. Additionally, any and all conditions of panning may be varied, altered or changed to achieve optimal results, such as the isolation of a specific ligand. Panning variations include, but are not limited to, the presence of competing ligand(s), presence of excess target(s), length and temperature of binding, pre-absorption of the ligand library on one or more different receptor(s) or cells or surfaces, composition of binding solution (e.g., ionic strength), stringency of washing, and recovery procedures. Phages recovered from panning may be processed for further rounds of panning, functional analysis, and/or sequencing/genotyping to deduce the resulting ligands' amino acid sequence or biological properties (Clackson and Lowman, Phage display. Oxford University Press, 2004; Barbas et al., Phage display. A laboratory manual. Cold Spring Harbor Laboratory Press, 2001).
5×10^11 phagemids were added to the cell cultures in “B.”
A library of KTX-like ligands, with a calculated diversity of greater than 11,000, was created de novo. The library comprised approximately 8% KTX-like ligands and 92% non-KTX-like ligands. The library of ligands was screened on Kv1.3 receptors expressed in HEK and COS cells.
Transfection efficiency was monitored with cotransfection of gene encoding for the green fluorescence protein (GFP) and observing the fluorescence after 1-2 days following transfection.
KTX and mokatoxin-1 are Kv1.3 specific scorpion toxins. […] Following incubation of the cells with the phages, cells were subjected to wash to remove the unbound/weakly bound phages. The remaining bound phages were eluted from the cells and transformed into XL1 E. coli, and plated onto LB plates with antibiotic selecting for the phagemids.

Where [1] appears, read: HEK cells, kaliotoxin-1-phage 1 out of 10^10 phage.

Structures are written as SMILES.

T1 sequence (P10499 whole entry): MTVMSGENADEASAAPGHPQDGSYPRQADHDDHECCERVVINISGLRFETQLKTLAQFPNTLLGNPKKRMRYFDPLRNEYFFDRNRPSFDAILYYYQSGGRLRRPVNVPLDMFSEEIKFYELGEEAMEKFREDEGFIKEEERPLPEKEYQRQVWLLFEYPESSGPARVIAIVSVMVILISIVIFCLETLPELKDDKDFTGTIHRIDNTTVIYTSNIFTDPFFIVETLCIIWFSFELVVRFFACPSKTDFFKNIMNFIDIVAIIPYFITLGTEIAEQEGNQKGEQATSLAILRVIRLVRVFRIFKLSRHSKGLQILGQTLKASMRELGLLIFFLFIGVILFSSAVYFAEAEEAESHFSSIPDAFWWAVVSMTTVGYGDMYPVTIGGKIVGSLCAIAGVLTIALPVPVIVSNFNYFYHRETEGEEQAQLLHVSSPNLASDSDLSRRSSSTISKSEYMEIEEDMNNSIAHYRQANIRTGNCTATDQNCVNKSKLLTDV
Chain of Kv1.3 (P22001 whole entry): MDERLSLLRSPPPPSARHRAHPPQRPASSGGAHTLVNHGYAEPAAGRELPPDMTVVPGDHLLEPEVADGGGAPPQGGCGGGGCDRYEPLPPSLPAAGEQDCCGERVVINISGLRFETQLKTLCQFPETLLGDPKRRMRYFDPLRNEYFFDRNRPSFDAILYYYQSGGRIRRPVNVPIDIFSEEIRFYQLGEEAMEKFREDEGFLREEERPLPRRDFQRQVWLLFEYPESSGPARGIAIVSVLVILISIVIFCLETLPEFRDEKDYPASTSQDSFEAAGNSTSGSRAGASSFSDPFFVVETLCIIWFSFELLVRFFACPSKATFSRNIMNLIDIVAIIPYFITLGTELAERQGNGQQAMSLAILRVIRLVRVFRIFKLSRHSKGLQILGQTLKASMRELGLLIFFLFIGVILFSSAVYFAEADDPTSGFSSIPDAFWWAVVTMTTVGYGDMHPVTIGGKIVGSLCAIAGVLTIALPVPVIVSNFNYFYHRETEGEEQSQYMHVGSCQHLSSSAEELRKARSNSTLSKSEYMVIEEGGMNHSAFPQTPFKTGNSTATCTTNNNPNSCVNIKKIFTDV

`CC[C@H](C)[C@H](NC(=O)[C@H](CCC(=O)O)NC(=O)[C@@H](NC(=O)CN)C(C)C)C(=O)N[C@@H](CC(N)=O)C(=O)N[C@H](C(=O)N[C@@H](CCCCN)C(=O)N[C@H]1CSSC[C@@H]2NC(=O)[C@H](CCCCN)NC(=O)CNC(=O)[C@H](Cc3ccccc3)NC(=O)[C@H](CCCNC(=N)N)NC(=O)[C@H](CCSC)NC(=O)CNC(=O)[C@H](C)NC(=O)[C@H](CC(=O)O)NC(=O)[C@H](CCCCN)NC(=O)[C@@H]3CSSC[C@@H](C(=O)N[C@H](C(=O)N4CCC[C@H]4C(=O)N[C@@H](CCCCN)C(=O)O)[C@@H](C)O)NC(=O)[C@H](Cc4c[nH]cn4)NC(=O)[C@H](CSSC[C@H](NC(=O)[C@H](CCC(N)=O)NC(=O)[C@@H]4CCCN4C(=O)[C@H](CO)NC(=O)CNC(=O)[C@H](CO)NC1=O)C(=O)N[C@@H](CC(C)C)C(=O)N[C@@H](CCCCN)C(=O)N1CCC[C@H]1C(=O)N3)NC(=O)[C@H](CCCCN)NC(=O)[C@H](CCCNC(=N)N)NC(=O)[C@H](CC(N)=O)NC(=O)[C@H](CCSC)NC2=O)C(C)C` [KTX, kaliotoxin-1]: the “enrichment after one round of panning” value with KcsA-Kv1.3 was 3.6 fold. Besides, in the assay on KcsA-Kv1.3 (one round of panning), the “Output (% Ligands) KcsA-Kv.13 (n = 20)” value is 100%. The IC50 (usually the concentration at which inhibition is half-maximal) at Kv1.1 was found to be 0.1 nM. The “Koff [s]^−1” value at Kv1.1 (rKv1.1) was 0.009 ± 0.002 [s]^−1. The “Kon [M · s]^−1” value on Kv1.1 (rKv1.1) is 30 · 10^6 ± 16 · 10^6 [M · s]^−1. Besides, the figures for the “enrichment of KTX, Kv1.3 transfected vs. vector cells” value at Kv1.3 (COS cells) and at Kv1.3 (HEK cells) were ~10 fold and ~20 fold, respectively. Besides, the “2nd round (n = 20) %” value on Kv1.3 (setting [1]) is reported as 0%. At Kv1.3 (setting [1]), the “3rd round (n = 12) %” value is given as 58%. The “OUTPUT KTX (%)” value on Kv1.3 (input ratio 1/99, actual 5/95 (n = 20)) is 26 (n = 20) %; on Kv1.3 (input ratio 10/90, actual 0/100 (n = 10)), 22 (n = 18) %; on Kv1.3 (input ratio 10/90, actual 7/93 (n = 30)) it was 30 (n = 30) %.

The record behind these values is patent publication US8716437B2 (priority 2007, dated 2014).
